# Tested on: Influenza A virus
# Experiment: Antiviral activity against Influenza virus A/WSN/33 expressing M2 S31N mutant channel infected in MDCK cells by plaque reduction assay
# Assay type: functional, organism-based
smiles,measurement,value
Brc1ccc(CNC23CC4CC(CC(C4)C2)C3)s1,EC50,1800 µM

# — ChEMBL document CHEMBL6121032, “Mining Druggable Sites in Influenza A Hemagglutinin: Binding of the Pinanamine-Based Inhibitor M090” (ACS Med Chem Lett, 2025)
